In patent US9856242B2, “5-fluoro-N-(pyridin-2-yl)pyridin-2-amine derivatives containing a sulfone group” (Bayer Pharma Aktiengesellschaft, priority 2014, dated 2018):

Experiments:
HeLa-MaTu-ADR cells = experiment: Proliferation assay (Method 3), HeLa-MaTu-ADR; assay type: cell-based; settings: 96 h; multidrug-resistant human cervical carcinoma, 4 days, crystal violet; read-out: Inhibition of HeLa-MaTu-ADR cell proliferation IC50
Method: (§1) Cultivated tumour cells (HeLa, human cervical tumour cells, ATCC CCL-2; NCI-H460, human non-small cell lung carcinoma cells, ATCC HTB-177; A2780, human ovarian carcinoma cells, ECACC #93112519; DU 145, hormone-independent human prostate carcinoma cells, ATCC HTB-81; HeLa-MaTu-ADR, multidrug-resistant human cervical carcinoma cells, EPO-GmbH Berlin; Caco-2, human colorectal carcinoma cells, ATCC HTB-37; B16F10, mouse melanoma cells, ATCC CRL-6475) were plated at a density of 5,000 cells/well (DU145, HeLa-MaTu-ADR), 3,000 cells/well (NCI-H460, HeLa), 2,500 cells/well (A2780), 1,500 cells/well (Caco-2), or 1,000 cells/well (B16F10) in a 96-well multititer plate in 200 μL of their respective growth medium supplemented 10% fetal calf serum. After 24 hours, the cells of one plate (zero-point plate) were stained with crystal violet (see below), while the medium of the other plates was replaced by fresh culture medium (200 μl), to which the test substances were added in various concentrations (0 μM, as well as in the range of 0.001-10 μM; the final concentration of the solvent dimethyl sulfoxide was 0.5%). The cells were incubated for 4 days in the presence of test substances. Cell proliferation was determined by staining the cells with crystal violet: the cells were fixed by adding 20 μl/measuring point of an 11% glutaric aldehyde solution for 15 minutes at room temperature. After three washing cycles of the fixed cells with water, the plates were dried at room temperature. The cells were stained by adding 100 μl/measuring point of a 0.1% crystal violet solution (pH 3.0). After three washing cycles of the stained cells with water, the plates were dried at room temperature. The dye was dissolved by adding 100 μl/measuring point of a 10% acetic acid solution. The extinction was determined by photometry at a wavelength of 595 nm. The change of cell number, in percent, was calculated by normalization of the measured values to the extinction values of the zero-point plate (=0%) and the extinction of the untreated (0 μm) cells (=100%). The IC50 values (inhibitory concentration at 50% of maximal effect) were determined by means of a 4 parameter fit.

CDK2/CycE = target: T1, CDK2/CycE (Homo sapiens, UniProt P24941); experiment: CDK2/CycE kinase assay (Method 2a, TR-FRET, 10 μM ATP); assay type: biochemical
T1 construct: GST; purchased ProQinase GmbH (Freiburg, Germany); host or cells: insect cells (Sf9)
Text: 2a. CDK2/CycE Kinase Assay:
CDK2/CycE-inhibitory activity of compounds of the present invention was quantified employing the CDK2/CycE TR-FRET assay as described in the following paragraphs:
Recombinant fusion proteins of GST and human CDK2 and of GST and human CycE, expressed in insect cells (Sf9) and purified by Glutathion-Sepharose affinity chromatography, were purchased from ProQinase GmbH (Freiburg, Germany). As substrate for the kinase reaction biotinylated peptide biotin-Ttds-YISPLKSPYKISEG (C-terminus in amid form) was used which can be purchased e.g. form the company JERINI Peptide Technologies (Berlin, Germany).
For the assay 50 n1 of a 100 fold concentrated solution of the test compound in DMSO was pipetted into a black low volume 384 well microtiter plate (Greiner Bio-One, Frickenhausen, Germany), 2 μl of a solution of CDK2/CycE in aqueous assay buffer [50 mM Tris/HCl pH 8.0, 10 mM MgCl2, 1.0 mM dithiothreitol, 0.1 mM sodium ortho-vanadate, 0.01% (v/v) Nonidet-P40 (Sigma)] were added and the mixture was incubated for 15 min at 22° C. to allow pre-binding of the test compounds to the enzyme before the start of the kinase reaction. Then the kinase reaction was started by the addition of 3 μl of a solution of adenosine-tri-phosphate (ATP, 16.7 μM=>final conc. in the 5 μl assay volume is 10 μM) and substrate (1.25 μM=>final conc. in the 5 μl assay volume is 0.75 μM) in assay buffer and the resulting mixture was incubated for a reaction time of 25 min at 22° C. The concentration of CDK2/CycE was adjusted depending of the activity of the enzyme lot and was chosen appropriate to have the assay in the linear range, typical concentrations were in the range of 130 ng/mL. The reaction was stopped by the addition of 5 μl of a solution of TR-FRET detection reagents (0.2 μM streptavidine-XL665 [Cisbio Bioassays, Codolet, France] and 1 nM anti-RB(pSer807/pSer811)-antibody from BD Pharmingen [#558389] and 1.2 nM LANCE EU-W1024 labeled anti-mouse IgG antibody [Perkin-Elmer, product no. AD0077]) in an aqueous EDTA-solution (100 mM EDTA, 0.2% (w/v) bovine serum albumin in 100 mM HEPES/NaOH pH 7.0).
The resulting mixture was incubated 1 h at 22° C. to allow the formation of complex between the phosphorylated biotinylated peptide and the detection reagents. Subsequently the amount of phosphorylated substrate was evaluated by measurement of the resonance energy transfer from the Eu-chelate to the streptavidine-XL. Therefore, the fluorescence emissions at 620 nm and 665 nm after excitation at 350 nm was measured in a TR-FRET reader, e.g. a Rubystar (BMG Labtechnologies, Offenburg, Germany) or a Viewlux (Perkin-Elmer). The ratio of the emissions at 665 nm and at […] was taken as the measure for the amount of phosphorylated substrate. The data were normalised (enzyme reaction without inhibitor=0% inhibition, all other assay components but no enzyme=100% inhibition).

DU145 cells = experiment: Proliferation assay (Method 3), DU145; assay type: cell-based; settings: DU-145, 96 h; hormone-independent human prostate carcinoma, 4 days, crystal violet; read-out: Inhibition of DU145 cell proliferation IC50
Method: as §1

HeLa cells = experiment: Proliferation assay (Method 3), HeLa; assay type: cell-based; settings: 96 h, human cervical tumour, 4 days, crystal violet, read-out: Inhibition of HeLa cell proliferation IC50
Method: as §1

B16F10 cells = experiment: Proliferation assay (Method 3), B16F10; assay type: cell-based; settings: B16-F10, 96 h; mouse melanoma, 4 days, crystal violet; read-out: Inhibition of B16F10 cell proliferation IC50
Method: as §1

NCI-H460 cells = experiment: Proliferation assay (Method 3), NCI-H460; assay type: cell-based; settings: NCI-H460, 96 h; human non-small cell lung carcinoma, 4 days, crystal violet; read-out: Inhibition of NCI-H460 cell proliferation IC50
Method: as §1

SMILES	IC50 (HeLa-MaTu-ADR cells)	IC50 (CDK2/CycE)	IC50 (DU145 cells)	IC50 (HeLa cells)	IC50 (B16F10 cells)	IC50 (NCI-H460 cells)
CS(=O)(=O)Cc1cc(F)nc(Nc2cc(-c3ccc(F)c4ccoc34)c(F)cn2)c1 [Example 2, 5-Fluoro-4-(4-fluoro-1-benzofuran-7-yl)-N-{6-fluoro-4-[(methylsulfonyl)methyl]pyridin-2-yl}pyridin-2-amine]	24 nM	71 nM	36 nM	40 nM	59 nM	48 nM
Cc1cc(CS(C)(=O)=O)cc(Nc2cc(-c3ccc(F)c4ccoc34)c(F)cn2)n1 [Example 3, 5-Fluoro-4-(4-fluoro-1-benzofuran-7-yl)-N-{6-methyl-4-[(methylsulfonyl)methyl]pyridin-2-yl}pyridin-2-amine]	18 nM	46 nM	24 nM	12 nM	32 nM	19 nM
CS(=O)(=O)Cc1cc(Nc2cc(-c3ccc(F)c4ccoc34)c(F)cn2)nc(C(F)(F)F)c1 [Example 4, 5-Fluoro-4-(4-fluoro-1-benzofuran-7-yl)-N-{4-[(methylsulfonyl)methyl]-6-(trifluoromethyl)pyridin-2-yl}pyridin-2-amine]	23 nM	33 nM	30 nM	13 nM	31 nM	33 nM

Continued by falling IC50 (HeLa-MaTu-ADR cells), values first:

IC50 (HeLa-MaTu-ADR cells)	IC50 (CDK2/CycE)	IC50 (DU145 cells)	IC50 (HeLa cells)	IC50 (B16F10 cells)	IC50 (NCI-H460 cells)	SMILES
68 nM	69 nM	58 nM	68 nM	120 nM	91 nM	CS(=O)(=O)Cc1ccnc(Nc2cc(-c3cccc4ccoc34)c(F)cn2)c1 [Example 5, 4-(1-Benzofuran-7-yl)-5-fluoro-N-{4-[(methylsulfonyl)methyl]pyridin-2-yl}pyridin-2-amine]
36 nM	87 nM	34 nM	6 nM	70 nM	37 nM	CS(=O)(=O)Cc1ccnc(Nc2cc(-c3ccc(F)c4ccoc34)c(F)cn2)c1 [Example 1, 5-Fluoro-4-(4-fluoro-1-benzofuran-7-yl)-N-{4-[(methylsulfonyl)methyl]pyridin-2-yl}pyridin-2-amine]
